These results are taken from ChEMBL document CHEMBL1149806, “Synthesis and antiproliferative activities of isoindigo and azaisoindigo derivatives” (Eur J Med Chem, 2008).

One test has as its system K562. The test is described as follows: Antiproliferative activity against human K562 cells at 10 uM after 72 hrs by MTS test. Format: functional. To be noted: K562, 72 h. In general terms: Tetrazolium assays rely on reduction of a dye to a coloured formazan, in cell work by metabolically active cells.
Another test concerns HL-60. Nature of the test: Antiproliferative activity against human HL60 cells at 10 uM after 72 hrs by MTS test. The format is functional. To be noted: HL-60, 72 h.
The subject of test [1] is KB. The test is described as follows: Antiproliferative activity against human KB cells after 72 hrs by MTS test. The format is functional, cell-based.
Test [2] deals with KB. The test is described as follows: Antiproliferative activity against human KB cells at 10 uM after 72 hrs by MTS test. Format: functional.
For test [3], the system named is KB. Nature of the test: Antiproliferative activity against human KB cells at 0.25 nM after 72 hrs by MTS test. The format is functional.

Molecules are shown by their SMILES.

By inhibition is commonly meant the percentage by which the read-out fell short of the control. Higher therefore signals a response far below the control. For orientation: IC50 means the concentration at which inhibition is half-maximal.

`O=C1Nc2ccccc2/C1=C1\C(=O)Nc2ccccc21` [ISOINDIGO]: the inhibition at 10 µM in the test on K562 is 64%; with HL-60 it was 53%; in the test with KB [2] it was 92%. Besides, in the test with KB [1], inhibition was half-maximal at 1600 nM (IC50).
`CC(=O)OC[C@H]1O[C@@H](N2C(=O)/C(=C3/C(=O)Nc4ccc(OC(F)(F)F)cc43)c3ccccc32)[C@H](OC(C)=O)[C@@H](OC(C)=O)[C@@H]1OC(C)=O`: the values for the inhibition at 10 µM in the test with K562, with HL-60 and in the test with KB [2] were 3%, 4% and 0%, respectively.
Regarding `CC(=O)O[C@@]12CO[C@@H]1C[C@H](O)[C@@]1(C)C(=O)[C@H](O)C3=C(C)[C@@H](OC(=O)[C@H](O)[C@@H](NC(=O)OC(C)(C)C)c4ccccc4)C[C@@](O)([C@@H](OC(=O)c4ccccc4)[C@H]21)C3(C)C` [DOCETAXEL], the inhibition at 10 µM worked out at 32% in the test on K562 and 46% with HL-60. Besides, in the test with KB [3], the inhibition at 0.00025 µM came to 71%.
